The assay relates to L1210. Description: Cytotoxicity against mouse L1210 cells after 72 hrs. The class given is functional, cell-based. To be noted: L1210, 72 h.

The values that follow come from ChEMBL document CHEMBL1148034, “On the structures of crambescins B and C1” (J Nat Prod, 1993).

In brackets after ≈: the same amount, converted by molar mass.

The term IC50 denotes the concentration that inhibits the measured activity by half. High values mean weaker potency, low ones greater potency. `CCCCCCCCC[C@H]1NC(N)=N[C@@]2(CCCO2)[C@H]1C(=O)OCCCCCCCNC(=N)N` [CRAMBESCIN B] displayed a concentration for half-maximal inhibition (IC50) of 1 µg/mL (≈ 2.08 µM).
